Measured values: patent US20200010457A1, “TETRAHYDROPYRAN AND TETRAHYDROTHIOPYRAN AMIDE DERIVATIVES HAVING MULTIMODAL ACTIVITY AGAINST PAIN” (ESTEVE PHARMACEUTICALS, S.A., priority 2016, published 2020)

System: human σ1 receptor and human μ-opioid receptor
Assay: Human σ1 receptor ([3H](+)-pentazocine) and human μ-opioid receptor ([3H]-DAMGO) radioligand assays, reported as one combined score
Assay type: binding
Design: key to σ1 and μ binding: +: Both Ki-μ and Ki-σ1>=1000 nM; ++: One Ki<1000 nM while the other Ki is >=1000 nM; +++: Both Ki-μ and Ki-σ1<1000 nM; ++++: Both Ki-μ and Ki-σ1<500 nM
Conditions: combined class for Ki-σ1 (transfected HEK-293 membranes) and Ki-μ (transfected CHO-K1 cell membranes)
Procedure: Human σ1 Receptor Radioligand Assay
To investigate binding properties of test compounds to human σ1 receptor, transfected HEK-293 membranes and [^3H](+)-pentazocine (Perkin Elmer, NET-1056), as the radioligand, were used. The assay was carried out with 7 μg of membrane suspension, 5 nM of [^3H](+)-pentazocine in either absence or presence of either buffer or 10 μM Haloperidol for total and non-specific binding, respectively. Binding buffer contained Tris-HCl 50 mM at pH 8. Plates were incubated at 37° C. for 120 minutes. After the incubation period, the reaction mix was then transferred to MultiScreen HTS, FC plates (Millipore), filtered and plates were washed 3 times with ice-cold 10 mM TrisHCL (pH7.4). Filters were dried and counted at approximately 40% efficiency in a MicroBeta scintillation counter (Perkin-Elmer) using EcoScint liquid scintillation cocktail.
Preferably, transfected HEK-293 membranes (7 μg) were incubated with 5 nM of [^3H](+)-pentazocine in assay buffer containing Tris-HCl 50 mM at pH 8. NBS (non-specific binding) was measured by adding 10 μM Haloperidol. The binding of the test compound was measured at five different concentrations. Plates were incubated at 37° C. for 120 minutes. After the incubation period, the reaction mix was then transferred to MultiScreen HTS, FC plates (Millipore), filtered and plates were washed 3 times with ice-cold 10 mM TrisHCL (pH7.4). Filters were dried and counted at approximately 40% efficiency in a MicroBeta scintillation counter (Perkin-Elmer) using EcoScint liquid scintillation cocktail.
Human μ-Opioid Receptor Radioligand Assay
To investigate binding properties of test compounds to human μ-opioid receptor, transfected CHO-K1 cell membranes and [^3H]-DAMGO (Perkin Elmer, ES-542-C), as the radioligand, were used. The assay was carried out with 20 μg of membrane suspension, 1 nM of [^3H]-DAMGO in either absence or presence of either buffer or 10 μM Naloxone for total and non-specific binding, respectively. Binding buffer contained Tris-HCl 50 mM, MgCl2 5 mM at pH 7.4. Plates were incubated at 27° C. for 60 minutes. After the incubation period, the reaction mix was then transferred to MultiScreen HTS, FC plates (Millipore), filtered and plates were washed 3 times with ice-cold 10 mM TrisHCL (pH 7.4). Filters were dried and counted at approximately 40% efficiency in a MicroBeta scintillation counter (Perkin-Elmer) using EcoScint liquid scintillation cocktail.
Preferably, transfected CHO-K1 cell membranes (20 μg) were incubated with 1 nM of [^3H]-DAMGO in assay buffer containing Tris-HCl 50 mM, MgCl2 5 mM at pH 7.4. NBS (non-specific binding) was measured by adding 10 μM Naloxone. The binding of the test compound was measured at five different concentrations. Plates were incubated at 27° C. for 60 minutes. After the incubation period, the reaction mix was then transferred to MultiScreen HTS, FC plates (Millipore), filtered and plates were washed 3 times with ice-cold 10 mM TrisHCL (pH 7.4). Filters were dried and counted at approximately 40% efficiency in a MicroBeta scintillation counter (Perkin-Elmer) using EcoScint liquid scintillation cocktail.

Row | SMILES | σ1 and μ binding
1 | CCC(=O)N(CC1(N(C)CCN(C)Cc2ccccc2)CCOCC1)c1cccc(C(F)(F)F)n1 [Example 2, N-((4-((2-(benzyl(methyl)amino)ethyl)(methyl)amino)tetrahydro-2H-pyran-4-yl)methyl)-N-(6-(trifluoromethyl)pyridin-2-yl)propionamide] | ++
2 | CCC(=O)N(CC1(N(C)CCNCC(C)C)CCOCC1)c1cccc(C(F)(F)F)n1 [Example 3, N-((4-((2-(Isobutylamino)ethyl)(methyl)amino)tetrahydro-2H-pyran-4-yl)methyl)-N-(6-(trifluoromethyl)pyridin-2-yl)propionamide] | ++
3 | CCOCCN(C)CCN(C)C1(CN(C(=O)CC)c2cccc(C(F)(F)F)n2)CCOCC1 [Example 4, N-((4-((2-((2-Ethoxyethyl)(methyl)amino)ethyl)(methyl)amino)tetrahydro-2H-pyran-4-yl)methyl)-N-(6-(trifluoromethyl)pyridin-2-yl)propionamide] | ++
4 | CCC(=O)N(CC1(CCCNCC(C)C)CCOCC1)c1cccc(C(F)(F)F)n1 [Example 5, N-((4-(3-(Isobutylamino)propyl)tetrahydro-2H-pyran-4-yl)methyl)-N-(6-(trifluoromethyl)pyridin-2-yl)propionamide] | ++
5 | CCC(=O)N(CC1(CCCN(C)CC(C)C)CCOCC1)c1cccc(C(F)(F)F)n1 [Example 8, N-((4-(3-(isobutyl(methyl)amino)propyl)tetrahydro-2H-pyran-4-yl)methyl)-N-(6-(trifluoromethyl)pyridin-2-yl)propionamide] | ++

Same assay, conditions: combined class for Ki-σ1 (transfected HEK-293 membranes) and Ki-μ (transfected CHO-K1 cell membranes); read-out: σ1 and μ binding

Row | SMILES | Ki
6 | CCC(=O)N(CC1(N(C)CCN(Cc2ccccc2)CC(C)C)CCOCC1)c1cccc(C(F)(F)F)n1 [Example 1, N-((4-((2-(Benzyl(isobutyl)amino)ethyl)(methyl)amino)tetrahydro-2H-pyran-4-yl)methyl)-N-(6-(trifluoromethyl)pyridin-2-yl)propionamide] | ≥ 1000 nM
7 | CCOCCNCCCC1(CN(C(=O)CC)c2cccc(C(F)(F)F)n2)CCOCC1 [Example 6, N-((4-(3-((2-ethoxyethyl)amino)propyl)tetrahydro-2H-pyran-4-yl)methyl)-N-(6-(trifluoromethyl)pyridin-2-yl)propionamide] | < 1000 nM
8 | CCC(=O)N(CC1(CCNCC(C)C)CCOCC1)c1cccc(C(F)(F)F)n1 [Example 7, N-((4-(2-(isobutylamino)ethyl)tetrahydro-2H-pyran-4-yl)methyl)-N-(6-(trifluoromethyl)pyridin-2-yl)propionamide] | ≥ 1000 nM
9 | CCOCCN(C)CCCC1(CN(C(=O)CC)c2cccc(C(F)(F)F)n2)CCOCC1 [Example 9, N-((4-(3-((2-ethoxyethyl)(methyl)amino)propyl)tetrahydro-2H-pyran-4-yl)methyl)-N-(6-(trifluoromethyl)pyridin-2-yl)propionamide] | ≥ 1000 nM
